In PubChem BioAssay (NCI):
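How tested: cells in 96-well plates exposed to compound for 48 hours at five concentrations. Definition used: TGI = concentration required for complete inhibition of growth.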

Tests used:
Assay in all cases: growth of human tumour cells (NCI), 48 h
[1] = test system: KM12 colon
[2] = test system: K-562 leukemia
[3] = test system: CCRF-CEM leukemia
[4] = test system: 786-0 renal
[5] = test system: CAKI-1 renal
[6] = test system: HCT-15 colon
[7] = test system: OVCAR-4 ovarian
[8] = test system: OVCAR-5 ovarian
[9] = test system: HCT-116 colon
[10] = test system: HS 578T breast
[11] = test system: A549 NSCLC
[12] = test system: NCI-H23 lung
[13] = test system: NCI/ADR-RES ovarian
[14] = test system: DU-145 prostate
[15] = test system: TK-10 renal
[16] = test system: M14 melanoma
[17] = test system: UACC-257 melanoma
[18] = test system: U251 CNS
[19] = test system: RXF 393 renal
[20] = test system: IGROV1 ovarian
[21] = test system: RPMI-8226 leukemia
[22] = test system: SR leukemia
[23] = test system: HOP-92 NSCLC
[24] = test system: SF-295 CNS
[25] = test system: HOP-62 NSCLC
[26] = test system: NCI-H522 lung
[27] = test system: HL-60(TB) leukemia
[28] = test system: MOLT-4 leukemia
[29] = test system: A498 renal
[30] = test system: SK-OV-3 ovarian
[31] = test system: EKVX NSCLC
[32] = test system: NCI-H226 lung
[33] = test system: HT29 colon
[34] = test system: OVCAR-3 ovarian
[35] = test system: PC-3 prostate
[36] = test system: SNB-75 CNS
[37] = test system: UO-31 renal
[38] = test system: MDA-MB-231 breast
[39] = test system: T-47D breast
[40] = test system: OVCAR-8 ovarian
[41] = test system: LOX IMVI melanoma
[42] = test system: SW-620 colon
[43] = test system: COLO 205 colon
[44] = test system: UACC-62 melanoma
[45] = test system: SN12C renal
[46] = test system: MDA-MB-435
[47] = test system: SK-MEL-28 melanoma
[48] = test system: SF-539 CNS
[49] = test system: MDA-N
[50] = test system: NCI-H460 lung
[51] = test system: MCF7 breast
[52] = test system: SNB-19 CNS
[53] = test system: SF-268 CNS
[54] = test system: BT-549 breast
[55] = test system: MALME-3M melanoma
[56] = test system: ACHN renal
[57] = test system: SK-MEL-2 melanoma
[58] = test system: SK-MEL-5 melanoma
[59] = test system: HCC-2998 colon

## CCCN(CCC)c1cc2c(cc1F)c(=O)c(C(=O)O)cn2-c1ccc(N2CCN(C)CC2)cn1
[1]
  TGI: 30.3 µM
[2]
  TGI: 55.1 µM
[3]
  TGI: 36.7 µM
[4]
  TGI: 36.8 µM
[5]
  TGI: 32.5 µM
[6]
  TGI: > 100 µM
[7]
  TGI: 43.3 µM
[8]
  TGI: 41.3 µM
[9]
  TGI: 28.9 µM
[10]
  TGI: 35.1 µM
[11]
  TGI: 34 µM
[12]
  TGI: 35 µM
[13]
  TGI: 35.9 µM
[14]
  TGI: 45.3 µM
[15]
  TGI: 23.1 µM
[16]
  TGI: 32.1 µM
[17]
  TGI: 36.4 µM
[18]
  TGI: > 100 µM
[19]
  TGI: 33.1 µM
[20]
  TGI: 27.6 µM
[21]
  TGI: 40.4 µM
[22]
  TGI: 35.9 µM
[23]
  TGI: 28.7 µM
[24]
  TGI: 33.6 µM
[25]
  TGI: 31.4 µM
[26]
  TGI: 24.9 µM
[27]
  TGI: 26.1 µM
[28]
  TGI: 43.4 µM
[29]
  TGI: 49.2 µM
[30]
  TGI: 28.5 µM
[31]
  TGI: 34.2 µM
[32]
  TGI: 31.1 µM
[33]
  TGI: 30.5 µM
[34]
  TGI: 29.7 µM
[35]
  TGI: 39.3 µM
[36]
  TGI: 28.3 µM
[37]
  TGI: 32.2 µM
[38]
  TGI: 27.1 µM
[39]
  TGI: 38.8 µM
[40]
  TGI: 27.3 µM
[41]
  TGI: 9.65 µM
[42]
  TGI: 48.2 µM
[43]
  TGI: 27.1 µM
[44]
  TGI: 39.6 µM
[45]
  TGI: 46 µM
[46]
  TGI: 38.9 µM
[47]
  TGI: 36.5 µM
[48]
  TGI: 32.6 µM
[49]
  TGI: 40.1 µM
[50]
  TGI: 36.5 µM
[51]
  TGI: 53.3 µM
[52]
  TGI: 31.5 µM
[53]
  TGI: 30.7 µM
[54]
  TGI: 25 µM
[55]
  TGI: 27.9 µM

## C[C@]12CC[C@H](O)C=C1CC[C@@H]1[C@@H]2CC[C@]2(C)C(=N/O)/C(=C/c3ccncc3)C[C@@H]12
[1]
  TGI: > 100 µM
[2]
  TGI: > 100 µM
[3]
  TGI: 32.9 µM
[4]
  TGI: 25.5 µM
[5]
  TGI: > 100 µM
[6]
  TGI: > 100 µM
[7]
  TGI: 76 µM
[8]
  TGI: 43.8 µM
[9]
  TGI: 18.7 µM
[10]
  TGI: > 100 µM
[11]
  TGI: 29.8 µM
[12]
  TGI: 63.7 µM
[13]
  TGI: 96.8 µM
[14]
  TGI: 19.9 µM
[15]
  TGI: 38.3 µM
[16]
  TGI: 24.6 µM
[56]
  TGI: 23.8 µM
[17]
  TGI: 32.8 µM
[18]
  TGI: 19.6 µM
[19]
  TGI: 26.3 µM
[20]
  TGI: 81.6 µM
[21]
  TGI: 19.9 µM
[22]
  TGI: 16.2 µM
[23]
  TGI: 31.6 µM
[24]
  TGI: 39.5 µM
[25]
  TGI: 30.9 µM
[26]
  TGI: 33.3 µM
[27]
  TGI: 35.4 µM
[28]
  TGI: > 100 µM
[57]
  TGI: 22.6 µM
[30]
  TGI: 34.9 µM
[31]
  TGI: > 100 µM
[32]
  TGI: 25.3 µM
[33]
  TGI: 18.9 µM
[34]
  TGI: 19.1 µM
[35]
  TGI: 14.6 µM
[36]
  TGI: 43.8 µM
[37]
  TGI: 20.5 µM
[38]
  TGI: 23.9 µM
[39]
  TGI: 44.4 µM
[40]
  TGI: 76 µM
[41]
  TGI: > 100 µM
[42]
  TGI: > 100 µM
[58]
  TGI: 18 µM
[43]
  TGI: 38.8 µM
[44]
  TGI: 19.3 µM
[45]
  TGI: 32.8 µM
[46]
  TGI: 42.8 µM
[59]
  TGI: 12.5 µM
[47]
  TGI: 60.2 µM
[48]
  TGI: 27.3 µM
[49]
  TGI: 44 µM
[50]
  TGI: 30.7 µM
[51]
  TGI: 16.7 µM
[52]
  TGI: 32 µM
[53]
  TGI: 49.4 µM
[54]
  TGI: 81.5 µM
[55]
  TGI: 48.5 µM

## O=C1C[C@@H](Sc2ccccc2)C2(OCCO2)[C@H]2ON3CCC[C@@H]3[C@@H]12
[1]
  TGI: 18.4 µM
[2]
  TGI: 13.8 µM
[3]
  TGI: 5.72 µM
[4]
  TGI: 4.83 µM
[5]
  TGI: 15.9 µM
[6]
  TGI: 9.7 µM
[7]
  TGI: 19.6 µM
[9]
  TGI: 2.99 µM
[10]
  TGI: 13.1 µM
[11]
  TGI: 26.3 µM
[12]
  TGI: 17.9 µM
[13]
  TGI: 31.2 µM
[14]
  TGI: 6.07 µM
[15]
  TGI: 19.3 µM
[16]
  TGI: 4.58 µM
[56]
  TGI: 15.2 µM
[17]
  TGI: 29.3 µM
[18]
  TGI: 18 µM
[20]
  TGI: 4.87 µM
[21]
  TGI: 8.94 µM
[22]
  TGI: 10.4 µM
[23]
  TGI: 11.4 µM
[24]
  TGI: 26.7 µM
[25]
  TGI: 13.8 µM
[27]
  TGI: 6.08 µM
[28]
  TGI: 8.7 µM
[57]
  TGI: 13.3 µM
[29]
  TGI: 30.5 µM
[30]
  TGI: 27.9 µM
[32]
  TGI: 34.5 µM
[33]
  TGI: 2.86 µM
[34]
  TGI: 9.15 µM
[35]
  TGI: 20.6 µM
[37]
  TGI: 4.12 µM
[38]
  TGI: 7.67 µM
[39]
  TGI: 8.75 µM
[40]
  TGI: 5.57 µM
[41]
  TGI: 11.8 µM
[42]
  TGI: 13.5 µM
[43]
  TGI: 6.32 µM
[44]
  TGI: 24.3 µM
[45]
  TGI: 7.52 µM
[46]
  TGI: 10 µM
[59]
  TGI: 20.8 µM
[47]
  TGI: 23 µM
[48]
  TGI: 19.8 µM
[49]
  TGI: 6.97 µM
[50]
  TGI: 18.7 µM
[51]
  TGI: 17.2 µM
[52]
  TGI: 29 µM
[53]
  TGI: 12.1 µM
[54]
  TGI: 18.9 µM
[55]
  TGI: 4.31 µM
